Article PMC9343747 (Phytochemistry Letters, 2022)

Assays:
[1] = tested on: influenza virus A/Puerto Rico/8/34 (H1N1); type: cell-based; settings: read-out: IC50, concentration resulting in 50% inhibition of virus replication; A/Puerto Rico/8/34 (H1N1) in MDCK cells
SARS-CoV-2 pseudovirus [2] = assay: microbe, parasite or virus in culture; type: cell-based; settings: Severe acute respiratory syndrome-related coronavirus, read-out: Inhibition rate (%), 5.0 µM, BHK-21-hACE2 cells
SARS-CoV-2 pseudovirus [3] = assay: microbe, parasite or virus in culture; type: cell-based; settings: Severe acute respiratory syndrome-related coronavirus, read-out: EC50, concentration resulting in 50% inhibition of virus replication
in vitro = settings: hamster, Cell viability (%), BHK-21-hACE2 cells

Compound	IC50 [1] [µM]	inhibition at 5 µM (SARS-CoV-2 pseudovirus [2]) [%]	EC50 (SARS-CoV-2 pseudovirus [3]) [µM]	viability at 20 µM (in vitro) [%]
CCC(CC)O[C@@H]1C=C(C(=O)O)C[C@H](N)[C@H]1NC(C)=O [Oseltamivir carboxylate]	6.4	–	–	–
CCN(CC)Cc1cc(Nc2ccnc3cc(Cl)ccc23)ccc1O [Amodiaquine, amodiaquine]	–	92.4	3.17	107
